Key:
Assay type in all cases: cell-based
Murine ES cells [1] = experiment: Beating embryoid bodies (EBs) from ES cells grown in suspension; conditions: for number of beating EBs at EB12: early treatment EB4-6, Wnt3a 150 ng/ml or Dkk1 500 ng/ml, untreated 10%; for EBs beating by EB 12: late treatment EB 7-9, Wnt3a 150 ng/ml or Dkk1 500 ng/ml, control EBs 13%
Protocol: (§1) ES cell culture and gene expression analysis. Murine ES cells were propagated undifferentiated in maintenance medium consisting of Glasgow MEM (Sigma G5154) supplemented with 10% fetal bovine serum (FBS, Hyclone SH30071.03), 1 mM β-mercaptoethanol (Sigma M7522), 2 mM L-glutamine (Gibco-BRL 25030-081), 1 mM sodium pyruvate (Gibco-BRL 11360-070), 0.1 mM minimum essential medium containing nonessential amino acids, and LIF-conditioned medium (1:1000). EBs were formed by culturing ES cells (6×10^5/well) for 3 days in ultra-low-attachment six-well plates (Costar 07200601) in differentiation medium (DM), which contained the same components as maintenance medium but had 20% FBS and no LIF. For early treatment, the medium was replaced with DM containing Wnt3a (150 ng/ml, R&D systems) or Dkk1 (500 ng/ml, R&D systems) at the start of day 4; on day 6, the medium was replaced with fresh DM. For late treatment, DM was replaced with Wnt3a- or Dkk1-containing DM at the start of day 7 and switched to fresh DM on day 9. Respective media were changed for early-, late-, and un-treated EBs every 3 days. EBs were monitored for beating from days 8-12. EBs were collected between days 3 and 12 at regular intervals. For gene expression analysis, total RNA was isolated, and real-time PCR was performed with the ABI Prism system (7900HT, Applied Biosystems). All samples were run in triplicate. Real-time PCR data were normalized and standardized with SDS2.2 software.
(§2) FIGS. 4A-E. Canonical Wnt signaling regulates cardiac induction and differentiation in ES cells. a, Brachyury expression profiles, determined by quantitative real-time PCR (qPCR), of undifferentiated ES cells on day 0 and EBs harvested on days 3, 6, and 9 after early Wnt3a or Dkk-1 treatment compared to control. b, Beating EBs grown in suspension were counted from days 8-12. Percentage of beating EBs after early (days 4-6) or late (days 7-9) treatment with Wnt3a (left) or Dkk-1 (right). Asterisks indicate significant difference in beating percentage of treatment groups versus untreated EBs (P<0.01). c, d Immunohistochemistry of day 12 EBs with anti-Islet1 (c) or anti-Tropomyosin (d). e, Cardiac gene expression after early (days 4-6, top) or late (days 7-9, bottom) treatment with Wnt3a or Dkk-1. EBs were harvested on days 3, 6 and 9 (early treatment) or days 6, 9, and 12 (late treatment). Fold change in expression of all indicated genes (y-axis) in EBs with respect to undifferentiated ES cells was assessed by qPCR. NS, not significant. *P<0.01.

Murine ES cells [2] = experiment: Mesoderm and cardiac gene expression in EBs by quantitative real-time PCR; conditions: qPCR; for Bry (Brachyury) expression: early treatment after EB3, compared to control; for expression of early cardiac gene Nkx2.5 / expression of early cardiac gene Tbx5: exposure from EB4-6 (early treatment); for expression of early and late cardiac markers (cardiac gene expression): late treatment EB 7-9
Protocol: as §1, §2

Murine ES cells [3] = experiment: Immunohistochemistry of day 12 EBs with anti-Islet1 or anti-Tropomyosin; conditions: for number of Isl1-positive cells in EBs: anti-Islet1 immunohistochemistry; for number of Tropomyosin-positive cells in EBs: anti-Tropomyosin immunohistochemistry
Protocol: Immunohistochemistry and in situ hybridization. Whole or cryosectioned embryos and EBs were stained with the following antibodies: mouse anti-Islet1 (1:200) and anti-tropomyosin (1:100) (DSHB), goat anti-Wnt8a (15 μg/ml, R&D Systems), goat anti-β-catenin (1:50) and rat anti-cyclin D2 (1:100) (Santa Cruz Biotechnology), rabbit anti-phospho-Histone H3 (1:100, Upstate), and horseradish peroxidase-conjugated (with TSA plus Fluorescent Systems, PerkinElmer) secondary antibodies (The Jackson Laboratory). mRNA in situ hybridization was performed with designated antisense probes as described. Srivastava et al Science 270, 1995-9 (1995).
as §1
FIGS. 4A-E. Canonical Wnt signaling regulates cardiac induction and differentiation in ES cells. a, Brachyury expression profiles, determined by quantitative real-time PCR (qPCR), of undifferentiated ES cells on day 0 and EBs harvested on days 3, 6, and 9 after early Wnt3a or Dkk-1 treatment compared to control. b, Beating EBs grown in suspension were counted from days 8-12. Percentage of beating EBs after early (days 4-6) or late (days 7-9) treatment with Wnt3a (left) or Dkk-1 (right). […] Fold change in expression of all indicated genes (y-axis) in EBs with respect to undifferentiated ES cells was assessed by qPCR. […]

[4] = system: human embryonic stem (ES) cells (H9); experiment: Beating of differentiating human ES cells treated with Wnt-3a
Protocol: Differentiating human embryonic stem (ES) cells (H9) were treated with Wnt-3a. […] Thus, canonical Wnt promotes human ES cells to differentiate into cardiomyocytes.

How did the “number of beating EBs at EB12” value (Murine ES cells [1]) turn out when Dkk1 was run?
Its value is “complete absence of beating EBs”.

And the “EBs beating by EB 12” value (Murine ES cells [1])?
The value was “Approximately 10%”.

What about the “Bry (Brachyury) expression” value (Murine ES cells [2]) of the same substance?
Its value is “unaltered”.

What about the “expression of early cardiac gene Nkx2.5” value (Murine ES cells [2]) of the same substance?
Its value is “downregulated”.

And the “expression of early cardiac gene Tbx5” value (Murine ES cells [2])?
Its value is “downregulated”.

What about the “expression of early and late cardiac markers (cardiac gene expression)” value (Murine ES cells [2]) of the same substance?
The value was “not changed”.

What about the “number of Isl1-positive cells in EBs” value (Murine ES cells [3]) of the same substance?
Its value is “decreased”.

And the “number of Tropomyosin-positive cells in EBs” value (Murine ES cells [3])?
Its value is “decreased”.

For Wnt3a, which “number of beating EBs at EB12” value (Murine ES cells [1]) is on record?
The value was “over 50%”.

And the “EBs beating by EB 12” value (Murine ES cells [1])?
Its value is about 50%.

And the “Bry (Brachyury) expression” value (Murine ES cells [2])?
Its value is “unaltered”.

And the “expression of early cardiac gene Nkx2.5” value (Murine ES cells [2])?
The value was “upregulated”.

What about the “expression of early cardiac gene Tbx5” value (Murine ES cells [2]) of the same substance?
The value was “upregulated”.

What about the “expression of early and late cardiac markers (cardiac gene expression)” value (Murine ES cells [2]) of the same substance?
The value was “upregulated”.

And the “number of Isl1-positive cells in EBs” value (Murine ES cells [3])?
Its value is “increased”.

And the “number of Tropomyosin-positive cells in EBs” value (Murine ES cells [3])?
The value was “increased”.

What about the “number of beating hES cells” value [4] of the same substance?
The value was “significantly increased”.
